Consider 17 compounds from patent US20250114345A1, “COMPOUNDS AND COMPOSITIONS AS CBP/P300 DEGRADERS AND USES THEREOF” (Oncopia Therapeutics, Inc. d/b/a/ SK Life Science Labs, priority 2023, published 2025).

The test addresses T1, p300 (Homo sapiens, UniProt Q09472).
T1 construct: host or cells: A549 P300 HiBit cells
In words: P300 degradation, HiBit technology in A549 P300 HiBit cells (2 h). Format: cell-based. The conditions noted are these: 2 hrs post treatment; for Dmax: A549, A549 P300 HiBit cells; for DC50: A549 P300 HiBit cells. The method, then:
p300 and CBP degradation potency and Dmax were determined using in cell western (ICW) assay technology in H1299 cells or HiBit technology in A549 HiBit cells.
A549 P300 HiBit and A549 CBP HiBit cells were plated in separate 384-well, TC treated, white-opaque, flat-bottomed microplate. Cells were plated at a cell density of 0.2×10^4 cells per well in assay media comprised of F-12K, 10% heat inactivated FBS, and 1% penicillin/streptomycin. Assay microplates containing HiBit cells were placed in a 37° C., 5% CO2, tissue culture incubator and left to equilibrate overnight. The next day cells were treated with serial dilutions of test compound made up of 10 mM stock solutions in DMSO. 384-Well plates containing treated cells were then placed back into a 37° C., 5% CO2, tissue culture incubator. Assay microplates containing A549 P300 HiBit cells were incubated for 2 hrs post treatment before P300 destruction was assessed, while microplates containing A549 CBP HiBit cells were incubated for 24 hrs post treatment before CBP destruction was determined. On the day of each assay time point, microplates were removed from the tissue culture incubator and prepared HiBit Lytic detection buffer (Promega, cat #N3O40) was added to each plate. Plates were covered with aluminum foil and incubated for ten minutes at room temperature on an orbital shaker. After incubation, luminescent signal of each plate was measured using the Envision instrument (Perkin Elmer).
A general note: With HiBiT, luminescence reflects the tagged protein that the partner subunit can reach.

One may read the Dmax as the largest share of the target that was removed. Lower therefore signals a partial loss of target. The term DC50 denotes the concentration giving 50% degradation.

T1 sequence (Q09472 whole entry): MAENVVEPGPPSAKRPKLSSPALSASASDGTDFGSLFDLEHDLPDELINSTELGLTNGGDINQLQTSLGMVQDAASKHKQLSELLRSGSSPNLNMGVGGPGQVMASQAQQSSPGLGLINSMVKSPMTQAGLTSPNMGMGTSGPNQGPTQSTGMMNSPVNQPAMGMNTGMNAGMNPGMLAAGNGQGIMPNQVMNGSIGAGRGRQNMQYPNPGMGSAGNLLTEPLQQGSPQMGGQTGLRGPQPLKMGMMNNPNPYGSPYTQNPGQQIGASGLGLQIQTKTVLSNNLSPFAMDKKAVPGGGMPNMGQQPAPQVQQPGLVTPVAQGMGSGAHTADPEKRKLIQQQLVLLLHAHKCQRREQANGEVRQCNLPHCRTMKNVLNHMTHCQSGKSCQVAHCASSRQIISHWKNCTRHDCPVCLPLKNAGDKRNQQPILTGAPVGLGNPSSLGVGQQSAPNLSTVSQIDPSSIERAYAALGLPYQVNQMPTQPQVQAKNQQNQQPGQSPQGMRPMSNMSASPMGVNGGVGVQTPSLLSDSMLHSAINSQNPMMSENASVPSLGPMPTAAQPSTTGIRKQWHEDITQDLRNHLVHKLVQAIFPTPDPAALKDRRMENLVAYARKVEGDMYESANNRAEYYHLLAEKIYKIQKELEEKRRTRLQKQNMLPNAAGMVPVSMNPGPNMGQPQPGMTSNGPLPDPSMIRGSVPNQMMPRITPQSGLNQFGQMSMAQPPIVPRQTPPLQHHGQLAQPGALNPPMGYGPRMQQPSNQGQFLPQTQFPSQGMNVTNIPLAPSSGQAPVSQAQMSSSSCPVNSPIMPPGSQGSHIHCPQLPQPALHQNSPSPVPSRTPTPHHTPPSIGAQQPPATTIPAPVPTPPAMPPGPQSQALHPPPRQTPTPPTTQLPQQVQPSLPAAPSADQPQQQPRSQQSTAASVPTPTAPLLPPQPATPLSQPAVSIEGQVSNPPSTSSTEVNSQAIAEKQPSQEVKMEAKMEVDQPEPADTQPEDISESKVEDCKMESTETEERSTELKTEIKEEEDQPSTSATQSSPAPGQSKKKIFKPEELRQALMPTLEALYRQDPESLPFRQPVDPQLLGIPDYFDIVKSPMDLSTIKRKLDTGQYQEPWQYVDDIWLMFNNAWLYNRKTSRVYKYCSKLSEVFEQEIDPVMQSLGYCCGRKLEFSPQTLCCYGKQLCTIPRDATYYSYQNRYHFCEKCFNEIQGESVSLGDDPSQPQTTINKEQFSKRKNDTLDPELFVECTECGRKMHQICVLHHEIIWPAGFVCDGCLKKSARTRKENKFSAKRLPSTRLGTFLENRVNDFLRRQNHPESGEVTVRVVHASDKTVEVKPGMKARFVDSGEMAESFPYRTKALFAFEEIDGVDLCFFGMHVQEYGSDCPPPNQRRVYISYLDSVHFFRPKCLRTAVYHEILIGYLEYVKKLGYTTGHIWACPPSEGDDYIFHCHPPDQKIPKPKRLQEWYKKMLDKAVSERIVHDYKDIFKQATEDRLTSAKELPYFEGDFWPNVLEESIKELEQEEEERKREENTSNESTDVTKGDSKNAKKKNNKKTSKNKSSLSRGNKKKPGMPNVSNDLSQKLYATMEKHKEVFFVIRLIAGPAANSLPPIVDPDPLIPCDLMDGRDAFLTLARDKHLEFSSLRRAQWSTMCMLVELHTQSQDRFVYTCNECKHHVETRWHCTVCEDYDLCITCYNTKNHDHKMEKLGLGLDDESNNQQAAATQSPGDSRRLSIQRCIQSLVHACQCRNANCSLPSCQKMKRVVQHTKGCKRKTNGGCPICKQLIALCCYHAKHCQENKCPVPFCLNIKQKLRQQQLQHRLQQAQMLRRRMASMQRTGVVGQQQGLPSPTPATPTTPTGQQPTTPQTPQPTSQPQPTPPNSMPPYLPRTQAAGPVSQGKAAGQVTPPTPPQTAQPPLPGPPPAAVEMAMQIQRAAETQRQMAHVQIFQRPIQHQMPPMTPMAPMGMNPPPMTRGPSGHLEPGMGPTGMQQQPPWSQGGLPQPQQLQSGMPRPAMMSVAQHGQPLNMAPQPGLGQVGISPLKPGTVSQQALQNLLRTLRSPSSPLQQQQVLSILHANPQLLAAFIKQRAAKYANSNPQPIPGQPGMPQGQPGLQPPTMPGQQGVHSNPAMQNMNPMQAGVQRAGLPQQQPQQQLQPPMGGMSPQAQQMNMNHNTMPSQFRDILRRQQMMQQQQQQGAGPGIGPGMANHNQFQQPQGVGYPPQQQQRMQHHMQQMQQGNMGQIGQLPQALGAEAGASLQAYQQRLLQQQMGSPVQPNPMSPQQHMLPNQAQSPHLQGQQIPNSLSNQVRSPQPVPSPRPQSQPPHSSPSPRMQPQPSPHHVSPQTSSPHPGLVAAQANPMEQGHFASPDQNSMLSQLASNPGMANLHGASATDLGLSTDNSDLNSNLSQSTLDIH

Take `Cc1cc(-c2cc(N(C)C)c(N(C)c3cc(C4CCOCC4)c4c(c3)n(C)c(=O)n4C)cn2)cnc1C(=O)NCC#Cc1cc2c(C3CCC(=O)NC3=O)cccc2o1` (stereo not shown) [Example A198, 5-((1,3-dimethyl-2-oxo-7-(tetrahydro-2H-pyran-4-yl)-2,3-dihydro-1H-benzo[d]imidazol-5-yl)(methyl)amino)-4-(dimethylamino)-N-(3-(4-(2,6-dioxopiperidin-3-yl)benzofuran-2-yl)prop-2-yn-1-yl)-5′-methyl-[2,3′-bipyridine]-6′-carboxamide]: the Dmax is < 20% and the DC50 is > 1000 nM.

As to `Cc1cc(-c2ncc(N(C)c3cc(C(C)C)c4c(c3)n(C)c(=O)n4C)cc2F)cnc1C(=O)NCC#Cc1cccc(NC2CCC(=O)NC2=O)c1` (stereo not shown) [Example A47, N-(3-(3-((2,6-dioxopiperidin-3-yl)amino)phenyl)prop-2-yn-1-yl)-3-fluoro-5-((7-isopropyl-1,3-dimethyl-2-oxo-2,3-dihydro-1H-benzo [d]imidazol-5-yl)(methyl)amino)-5′-methyl-[2,3′-bipyridine]-6′-carboxamide], the Dmax was > 80% and the DC50 lay within 10 to 99 nM.

In the case of `Cc1cc(-c2cnc(Nc3cc(C4CCOCC4)c4c(c3)n(C)c(=O)n4C)cn2)cnc1C(=O)NCC#Cc1cc2c(C3CCC(=O)NC3=O)cccc2o1` (stereo not shown) [Example A193], the Dmax was < 20% and the DC50 was > 1000 nM.

In the case of `Cc1cc(-c2cnc(N(C)c3cc(C4CCOCC4)c4c(c3)n(C)c(=O)n4C)cn2)cnc1C(=O)NCC#Cc1cc2c(C3CCC(=O)NC3=O)nccc2o1` (stereo not shown) [Example A176, 5-(5-((1,3-dimethyl-2-oxo-7-(tetrahydro-2H-pyran-4-yl)-2,3-dihydro-1H-benzo[d]imidazol-5-yl)(methyl)amino)pyrazin-2-yl)-N-(3-(4-(2,6-dioxopiperidin-3-yl)furo[3,2-c]pyridin-2-yl)prop-2-yn-1-yl)-3-methylpicolinamide], the Dmax was > 80% and the DC50 was 10 to 99 nM.

For `Cc1nc(-c2ncc(N(C)c3cc(C4CCOCC4)c4c(c3)n(C)c(=O)n4C)cn2)cnc1C(=O)NCC#Cc1cc2c(C3CCC(=O)NC3=O)cccc2o1` (stereo not shown) [Example A187, 5-(5-((1,3-dimethyl-2-oxo-7-(tetrahydro-2H-pyran-4-yl)-2,3-dihydro-1H-benzo[d]imidazol-5-yl)(methyl)amino)pyrimidin-2-yl)-N-(3-(4-(2,6-dioxopiperidin-3-yl)benzofuran-2-yl)prop-2-yn-1-yl)-3-methylpyrazine-2-carboxamide], the Dmax was > 80% and the DC50 fell in the range of 1 to 9.9 nM.

`Cc1cc(-c2ncc(N(C)c3ccc4c(c3)n(C)c(=O)n4C)cn2)cnc1C(=O)NCC#Cc1cc2c(C3CCC(=O)NC3=O)nccc2o1` (stereo not shown) [Example A192, 5-(5-((1,3-dimethyl-2-oxo-2,3-dihydro-1H-benzo[d]imidazol-5-yl)(methyl)amino)pyrimidin-2-yl)-N-(3-(4-(2,6-dioxopiperidin-3-yl)furo[3,2-c]pyridin-2-yl)prop-2-yn-1-yl)-3-methylpicolinamide]: the Dmax was > 80% and the DC50 lay within 1 to 9.9 nM.

In the case of `Cc1cc(-c2ncc3c(n2)OCCN3c2cc3c(c(N4CCOCC4)n2)n(C)c(=O)n3C)cnc1C(=O)NCC#Cc1ccc2occ(C3CCC(=O)NC3=O)c2c1` (stereo not shown) [Example A91, 5-(5-(1,3-dimethyl-4-morpholino-2-oxo-2,3-dihydro-1H-imidazo[4,5-c]pyridin-6-yl)-6,7-dihydro-5H-pyrimido[4,5-b][1,4]oxazin-2-yl)-N-(3-(3-(2,6-dioxopiperidin-3-yl)benzofuran-5-yl)prop-2-yn-1-yl)-3-methylpicolinamide], the Dmax is < 20% and the DC50 fell in the range of 10 to 99 nM.

With `Cc1cc(-c2ccc(N(C)c3cc(C(C)C)c4c(c3)n(C)c(=O)n4C)cn2)cnc1C(=O)NCC#Cc1cc(NC2CCC(=O)NC2=O)nn1C` (stereo not shown) [Example A154, N-(3-(3-((2,6-dioxo-piperidin-3-yl)amino)-1-methyl-1H-pyrazol-5-yl)prop-2-yn-1-yl)-5-((7-isopropyl-1,3-dimethyl-2-oxo-2,3-dihydro-1H-benzo [d]imidazol-5-yl) (methyl)amino)-5′-methyl-[2,3′-bipyridine]-6′-carboxamide], the Dmax lay in the range of 60 to 79% and the DC50 lay in the range of 10 to 99 nM.

Turning to `COc1cc(-c2cc3cccc(-c4cc(C(C)C)c5c(c4)n(C)c(=O)n5C)c3cn2)cnc1C(=O)NCC#Cc1ccc2c(c1)c(C1CCC(=O)NC1=O)nn2C` (stereo not shown) [Example A30, N-(3-(3-(2,6-Dioxopiperidin-3-yl)-1-methyl-1H-indazol-5-yl)prop-2-yn-1-yl)-5-(8-(7-isopropyl-1,3-dimethyl-2-oxo-2,3-dihydro-1H-benzo[d]imidazol-5-yl)isoquinolin-3-yl)-3-methoxypicolinamide], the Dmax is > 80% and the DC50 was 1 to 9.9 nM.

Take `CCc1cc(-c2ncc3c(n2)CCCN3c2cc(C3CCOCC3)cc3c2cc(C)c(=O)n3C)cnc1C(=O)NCC#Cc1ccc2occ(C3CCC(=O)NC3=O)c2c1` (stereo not shown) [Example B144, 5-(5-(1,3-dimethyl-2-oxo-7-(tetrahydro-2H-pyran-4-yl)-1,2-dihydroquinolin-5-yl)-5,6,7,8-tetrahydropyrido[3,2-d]pyrimidin-2-yl)-N-(3-(3-(2,6-dioxopiperidin-3-yl)benzofuran-5-yl)prop-2-yn-1-yl)-3-ethylpicolinamide]: the maximal degradation (Dmax) was > 80% and the DC50 is 1 to 9.9 nM.

Compound `Cn1c(=O)n(C)c2cc(N3CCCc4nc(-c5ccc(C(=O)NCC#Cc6ccc7occ(C89CC(C8)C(=O)NC9=O)c7c6)nc5)ncc43)ccc21` [Example A215, 5-(5-(1,3-dimethyl-2-oxo-2,3-dihydro-1H-benzo[d]imidazol-5-yl)-5,6,7,8-tetrahydropyrido[3,2-d]pyrimidin-2-yl)-N-(3-(3-(2,4-dioxo-3-azabicyclo[3.1.1]heptan-1-yl)benzofuran-5-yl)prop-2-yn-1-yl)picolinamide] came in with a Dmax of 60 to 79% and a DC50 of 10 to 99 nM.

Regarding `CC(C)c1cc(-c2cccc3cc(-c4ccc(C(=O)NCc5ccc(-c6cnn(C7CCC(=O)NC7=O)c6)cc5)nc4)ncc23)cc2c1n(C)c(=O)n2C` (stereo not shown) [Example A33, N-(4-(1-(2,6-Dioxopiperidin-3-yl)-1H-pyrazol-4-yl)benzyl)-5-(8-(7-isopropyl-1,3-dimethyl-2-oxo-2,3-dihydro-1H-benzo[d]imidazol-5-yl)isoquinolin-3-yl)picolinamide], the Dmax is < 20% and the DC50 was > 1000 nM.

For the compound `Cc1cc2c(N3CCCc4cc(-c5ccc(C(=O)NCC#Cc6ccc7occ(C8CCC(=O)NC8=O)c7c6)nc5)c(F)cc43)cc(C3CCOCC3)cc2n(C)c1=O` (stereo not shown) [Example B143, N-(3-(3-(2,6-dioxopiperidin-3-yl)benzofuran-5-yl)prop-2-yn-1-yl)-5-(7-fluoro-1′,3′-dimethyl-2′-oxo-7′-(tetrahydro-2H-pyran-4-yl)-1′,2′,3,4-tetrahydro-2H-[1,5′-biquinolin]-6-yl) picolinamide], the Dmax was > 80% and the 50% degradation concentration (DC50) was in the range of 1 to 9.9 nM.

As for `Cc1cc(-c2ncc3c(n2)CCCN3c2cc(C)c3c(c2)n(C)c(=O)n3C)cnc1C(=O)NCC#Cc1cc2c(C3CCC(=O)NC3=O)cccc2o1` (stereo not shown) [Example A227, N-(3-(4-(2,6-dioxo-piperidin-3-yl)benzofuran-2-yl)prop-2-yn-1-yl)-3-methyl-5-(5-(1,3,7-trimethyl-2-oxo-2,3-dihydro-1H-benzo [d]imidazol-5-yl)-5,6,7,8-tetrahydro-pyrido[3,2-d]pyrimidin-2-yl)picolinamide], the Dmax is > 80% and the DC50 lay within 1 to 9.9 nM.

As to `Cc1cc2c(N3CCN(C)c4nc(-c5ccc(C(=O)NCC#Cc6cc7c(C8CCC(=O)NC8=O)cccc7o6)nc5)ncc43)cccc2n(C)c1=O` (stereo not shown) [Example B65, 5-(5-(1,3-dimethyl-2-oxo-1,2-dihydroquinolin-5-yl)-8-methyl-5,6,7,8-tetrahydropteridin-2-yl)-N-(3-(4-(2,6-dioxopiperidin-3-yl)benzofuran-2-yl)prop-2-yn-1-yl)picolinamide], the Dmax was > 80% and the DC50 is 1 to 9.9 nM.

On to `Cc1cc(N2CCN(C)c3nc(-c4ccc(C(=O)NCC#Cc5cc6c(C7CCC(=O)NC7=O)nccc6o5)nc4)ncc32)cc2c1n(C)c(=O)n2C` (stereo not shown) [Example A220, N-(3-(4-(2,6-dioxo-piperidin-3-yl)furo[3,2-c]pyridin-2-yl)prop-2-yn-1-yl)-5-(8-methyl-5-(1,3,7-trimethyl-2-oxo-2,3-dihydro-1H-benzo [d]imidazol-5-yl)-5,6,7,8-tetrahydro-pteridin-2-yl)picolinamide], for which the Dmax is > 80% and the DC50 was 1 to 9.9 nM.

As for `CCn1c(=O)n(C)c2c(C)cc(N3CCOc4nc(-c5ccc(C(=O)NCC#Cc6ccc7occ(C8CCC(=O)NC8=O)c7c6)nc5)ncc43)cc21` (stereo not shown) [Example A77, N-(3-(3-(2,6-dioxopiperidin-3-yl)benzofuran-5-yl)prop-2-yn-1-yl)-5-(5-(3-ethyl-1,7-dimethyl-2-oxo-2,3-dihydro-1H-benzo[d]imidazol-5-yl)-6,7-dihydro-5H-pyrimido[4,5-b][1,4]oxazin-2-yl)picolinamide], the Dmax fell in the range of 60 to 79% and the DC50 is 1 to 9.9 nM.
